≈ marks a conversion by molar mass, not a printed value.
Columns and labels:
Format in all cases: cell-based
[1] = test system: Bifidobacterium adolescentis; test: MIC by agar dilution, drug-resistant isolates; details: moxifloxacin R; 1 isolate
Procedure: (§1) Antimicrobial activity was determined by agar dilution using the Clinical and Laboratory Standards Institute (CLSI) recommended procedure.
(§2) The compounds were tested in serial two-fold dilutions and the minimum inhibitory concentration (MIC) was determined as the lowest concentration of the compound that inhibited visible growth. Gepotidacin was tested against 333 gram-negative anaerobic and 203 gram-positive anaerobic isolates collected from clinical samples in North America and Europe from 2000 to 2017; the majority collected from 2013 to 2016.
(§3) Additional analysis was performed from the results of the study described in Method 1 above, to determine the in vitro activity of gepotidacin against gram-negative and gram-positive anaerobic organisms with resistance to ceftriaxone, clindamycin, imipenem, metronidazole, moxifloxacin and piperacillin/tazobactam.

[2] = test system: Fusobacterium necrophorum; test: MIC by agar dilution, drug-resistant isolates; details: clindamycin R; 1 isolate
Procedure: as §1, §2, §3

[3] = test system: Eubacterium limosum; test: MIC by agar dilution, drug-resistant isolates; details: moxifloxacin R; 2 isolates
Procedure: as §1, §2, §3

[4] = test system: Veillonella parvula; test: MIC by agar dilution, drug-resistant isolates
Procedure: as §1, §2, §3

[5] = test system: Bacteroides vulgatus; test: MIC by agar dilution, drug-resistant isolates
Procedure: as §1, §2, §3

[6] = test system: Bacteroides uniformis; test: MIC by agar dilution, drug-resistant isolates
Procedure: as §1, §2, §3

[7] = test system: Fusobacterium, non-speciated; test: MIC by agar dilution, drug-resistant isolates; details: 1 isolate
Procedure: as §1, §2, §3

[8] = test system: Prevotella bivia; test: MIC by agar dilution, drug-resistant isolates
Procedure: as §1, §2, §3

[9] = test system: Lactobacillus, non-speciated; test: MIC by agar dilution, drug-resistant isolates
Procedure: as §1, §2, §3

[10] = test system: Bacteroides caccae; test: MIC by agar dilution, drug-resistant isolates
Procedure: as §1, §2, §3

[11] = test system: Bacteroides fragilis; test: MIC by agar dilution, drug-resistant isolates
Procedure: as §1, §2, §3

[12] = test system: Bifidobacterium breve; test: MIC by agar dilution, drug-resistant isolates; details: moxifloxacin R; 1 isolate
Procedure: as §1, §2, §3

[13] = test system: Porphyromonas levii; test: MIC by agar dilution, drug-resistant isolates; details: metronidazole R; 1 isolate
Procedure: as §1, §2, §3

[14] = test system: Lactobacillus gasseri; test: MIC by agar dilution, drug-resistant isolates; details: clindamycin R; 2 isolates
Procedure: as §1, §2, §3

[15] = test system: Bacteroides thetaiotaomicron; test: MIC by agar dilution, drug-resistant isolates
Procedure: as §1, §2, §3

[16] = test system: Bacteroides ovatus; test: MIC by agar dilution, drug-resistant isolates
Procedure: as §1, §2, §3

[17] = test system: Prevotella buccae; test: MIC by agar dilution, drug-resistant isolates; details: 4 isolates
Procedure: as §1, §2, §3

[18] = test system: Porphyromonas somerae; test: MIC by agar dilution, drug-resistant isolates; details: clindamycin R; 1 isolate
Procedure: as §1, §2, §3

[19] = test system: Eubacterium nodatum; test: MIC by agar dilution, drug-resistant isolates; details: metronidazole R; 1 isolate
Procedure: as §1, §2, §3

[20] = test system: Bacteroides stercoris; test: MIC by agar dilution, drug-resistant isolates; details: ceftriaxone R, 2 isolates
Procedure: as §1, §2, §3

[21] = test system: viridans streptococci; test: MIC by CLSI broth microdilution, Example 5 second study; details: 19 isolates, 2013-2014
Description: (§4) A second study tested gepotidacin by CLSI broth microdilution against bacterial isolates collected from patients with acute bacterial skin and soft tissue infections between 2013-2014. Amoxicillin/clavulanic acid, linezolid, fusidic acid, ceftriaxone, ceftaroline, vancomycin, penicillin, quinupristin/dalfopristin, erythromycin, clindamycin, meropenem, tetracycline, chloramphenicol, flucloxacillin, telavancin, daptomycin, trimethoprim/sulfamethoxazole, gentamicin, levofloxacin, tigecycline and cefuroxime were included as comparators. MICs were determined by broth microdilution according to CLSI methods.

[22] = test system: S. anginosus; test: as above; details: Streptococcus anginosus; 10 isolates, 2013-2014
Description: as §4

[23] = test system: Bacteroides vulgatus; test: MIC by broth microdilution, drug-resistant isolates
Procedure: as §3

[24] = test system: Bacteroides uniformis; test: as above
Procedure: as §3

[25] = test system: Bacteroides caccae; test: as above; details: 1 isolate
Procedure: as §3

[26] = test system: Bacteroides fragilis; test: as above
Procedure: as §3

[27] = test system: Bacteroides thetaiotaomicron; test: as above
Procedure: as §3

[28] = test system: Bacteroides ovatus; test: as above
Procedure: as §3

[29] = test system: Bacteroides stercoris; test: as above; details: ceftriaxone R, 2 isolates
Procedure: as §3

[30] = test system: Bacteroides spp; test: as above
Procedure: as §3

In the case of `O=c1ccc2ncc(=O)n3c2n1C[C@H]3CN1CCC(NCc2cc3c(cn2)OCCC3)CC1` [gepotidacin, (2R)-2-({4-[(3,4-dihydro-2H-pyrano[2,3-c]pyridin-6-ylmethyl)amino]-1-piperidinyl}methyl)-1,2-dihydro-3H,8H-2a,5,8a-triazaacenaphthylene-3,8-dione], the “Gepotidacin MIC range” value [1] is reported as 0.25 µg/mL, the “Gepotidacin MIC range” value [2] is reported as 0.25 µg/mL and the “Gepotidacin MIC range” value [3] is reported as 0.25 to 0.5 µg/mL. For the same compound, the “Gepotidacin MIC range” value ([4]; ceftriaxone R, 1 isolate) was ≤0.015 µg/mL, the “Gepotidacin MIC range” value ([4]; clindamycin R, 1 isolate) was 0.125 µg/mL and the “Gepotidacin MIC range” value ([4]; moxifloxacin R, 2 isolates) was ≤0.015 to 0.03 µg/mL. The “Gepotidacin MIC range” value ([4]; pip/tazo R, 1 isolate) was 0.03 µg/mL, the “Gepotidacin MIC range” value ([5]; ceftriaxone R, 7 isolates) was ≤0.015 to 4 µg/mL and the “Gepotidacin MIC range” value ([5]; clindamycin R, 4 isolates) was ≤0.015 to 2 µg/mL. The “Gepotidacin MIC range” value ([5]; moxifloxacin R, 3 isolates) was 0.25 to 4 µg/mL, the “Gepotidacin MIC range” value ([6]; ceftriaxone R, 3 isolates) was 1 to 2 µg/mL and the “Gepotidacin MIC range” value ([6]; clindamycin R, 1 isolate) was 1 µg/mL. The “Gepotidacin MIC range” value ([6]; moxifloxacin R, 1 isolate) was 1 µg/mL, the “Gepotidacin MIC range” value ([7]; ceftriaxone R) was 2 µg/mL and the “Gepotidacin MIC range” value ([7]; clindamycin R) was 2 µg/mL. For the same compound, the “Gepotidacin MIC range” value ([8]; ceftriaxone R, 1 isolate) was 1 µg/mL, the “Gepotidacin MIC range” value ([8]; clindamycin R, 2 isolates) was 0.5 to 4 µg/mL and the “Gepotidacin MIC range” value ([8]; moxifloxacin R, 2 isolates) was 4 µg/mL. The “Gepotidacin MIC range” value ([9]; clindamycin R, 1 isolate) was 0.03 µg/mL, the “Gepotidacin MIC range” value ([9]; imipenem R, 9 isolates) was 0.03 to 1 µg/mL and the MIC ([10]; Bacteroides caccae, 1 drug-resistant isolate) was 8 µg/mL (≈ 17.8 µM). For the same compound, the “Gepotidacin MIC range” value ([10]; ceftriaxone R, 2 isolates) was 0.05 to 8 µg/mL, the “Gepotidacin MIC range” value ([10]; clindamycin R, 1 isolate) was 8 µg/mL and the “Gepotidacin MIC range” value ([10]; moxifloxacin R, 1 isolate) was 0.5 µg/mL. For the same compound, the “Gepotidacin MIC range” value ([11]; ceftriaxone R, 35 isolates) was 0.25 to 32 µg/mL, the “Gepotidacin MIC range” value ([11]; clindamycin R, 22 isolates) was ≤0.015 to 32 µg/mL and the “Gepotidacin MIC range” value ([11]; imipenem R, 1 isolate) was 0.5 µg/mL. The “Gepotidacin MIC range” value ([11]; moxifloxacin R, 19 isolates) was 0.25 to 32 µg/mL, the “Gepotidacin MIC range” value ([11]; pip/tazo R, 2 isolates) was 0.5 to 4 µg/mL and the “Gepotidacin MIC range” value [12] was 0.5 µg/mL. The “Gepotidacin MIC range” value [13] was ≤0.015 µg/mL, the “Gepotidacin MIC range” value [14] was 0.5 to 1 µg/mL and the “Gepotidacin MIC range” value ([15]; ceftriaxone R, 43 isolates) was 0.5 to 16 µg/mL. For the same compound, the “Gepotidacin MIC range” value ([15]; clindamycin R, 21 isolates) was 0.5 to 8 µg/mL, the “Gepotidacin MIC range” value ([15]; moxifloxacin R, 6 isolates) was 0.5 to 8 µg/mL and the “Gepotidacin MIC range” value ([16]; ceftriaxone R, 8 isolates) was 1 to 4 µg/mL. For the same compound, the “Gepotidacin MIC range” value ([16]; clindamycin R, 4 isolates) was 1 to 4 µg/mL, the “Gepotidacin MIC range” value ([16]; moxifloxacin R, 2 isolates) was 1 to 4 µg/mL and the “Gepotidacin MIC range” value ([17]; ceftriaxone R) was 0.25 to 2 µg/mL. For the same compound, the “Gepotidacin MIC range” value ([17]; clindamycin R) was 0.25 to 4 µg/mL, the “Gepotidacin MIC range” value [18] was 0.06 µg/mL and the “Gepotidacin MIC range” value [19] was 0.125 µg/mL. For the same compound, the “Gepotidacin MIC range” value [20] was 0.12 to 1 µg/mL, the MIC90 [21] was 0.5 µg/mL (≈ 1.11 µM) and the MIC90 [22] was 1 µg/mL (≈ 2.23 µM). The “Gepotidacin MIC range” value ([23]; ceftriaxone R, 7 isolates) was 0.06 to 4 µg/mL, the “Gepotidacin MIC range” value ([23]; clindamycin R, 4 isolates) was 0.06 to 0.5 µg/mL and the “Gepotidacin MIC range” value ([23]; moxifloxacin R, 3 isolates) was 0.25 to 4 µg/mL. The “Gepotidacin MIC range” value ([24]; ceftriaxone R, 2 isolates) was 0.5 to 2 µg/mL, the “Gepotidacin MIC range” value ([24]; moxifloxacin R, 1 isolate) was 0.5 µg/mL and the “Gepotidacin MIC range” value ([25]; ceftriaxone R) was 0.25 µg/mL. The “Gepotidacin MIC range” value ([25]; clindamycin R) was 4 µg/mL, the “Gepotidacin MIC range” value ([25]; moxifloxacin R) was 0.25 µg/mL and the “Gepotidacin MIC range” value ([26]; ceftriaxone R, 24 isolates) was 0.25 to 16 µg/mL. For the same compound, the “Gepotidacin MIC range” value ([26]; clindamycin R, 23 isolates) was 0.06 to 16 µg/mL, the “Gepotidacin MIC range” value ([26]; imipenem R, 2 isolates) was 1 to 4 µg/mL and the “Gepotidacin MIC range” value ([26]; moxifloxacin R, 20 isolates) was 0.25 to 8 µg/mL. For the same compound, the “Gepotidacin MIC range” value ([26]; pip/tazo R, 2 isolates) was 1 to 4 µg/mL, the “Gepotidacin MIC range” value ([27]; ceftriaxone R, 20 isolates) was 0.5 to 8 µg/mL and the “Gepotidacin MIC range” value ([27]; clindamycin R, 18 isolates) was 0.5 to 8 µg/mL. For the same compound, the “Gepotidacin MIC range” value ([27]; moxifloxacin R, 7 isolates) was 0.5 to 8 µg/mL, the “Gepotidacin MIC range” value ([28]; ceftriaxone R, 5 isolates) was 0.5 to 2 µg/mL and the “Gepotidacin MIC range” value ([28]; clindamycin R, 5 isolates) was 0.25 to 4 µg/mL. For the same compound, the “Gepotidacin MIC range” value ([28]; moxifloxacin R, 3 isolates) was 0.5 to 4 µg/mL, the “Gepotidacin MIC range” value [29] was ≤0.015 to 0.5 µg/mL and the “Gepotidacin MIC range” value ([30]; ceftriaxone R, 61 isolates) was ≤0.015 to 6 µg/mL. For the same compound, the “Gepotidacin MIC range” value ([30]; clindamycin R, 51 isolates) was 0.06 to 16 µg/mL and the “Gepotidacin MIC range” value ([30]; moxifloxacin R, 35 isolates) was 0.25 to 8 µg/mL.

Reference: US20220184071A1, “GEPOTIDACIN FOR USE IN THE TREATMENT OF BACTERIAL URINARY TRACT INFECTIONS” (GlaxoSmithKline Intellectual Property Development Limited, priority 2019, published 2022)
